Reference: patent US10221139B2, “Inhibitors of histone demethylases” (Gilead Sciences, Inc., priority 2012, dated 2019)

Experiments:
GASC1 (KDM4C, JMJD2C) = biological target: T1, GASC1 (KDM4C, JMJD2C) (Homo sapiens, UniProt Q9H3R0); assay: Histone lysine demethylase AlphaLISA assay, GASC1; assay type: biochemical; settings: substrate BK9M3
T1 construct: 1-349; host or cells: E. coli
T1 sequence (Q9H3R0 1-349): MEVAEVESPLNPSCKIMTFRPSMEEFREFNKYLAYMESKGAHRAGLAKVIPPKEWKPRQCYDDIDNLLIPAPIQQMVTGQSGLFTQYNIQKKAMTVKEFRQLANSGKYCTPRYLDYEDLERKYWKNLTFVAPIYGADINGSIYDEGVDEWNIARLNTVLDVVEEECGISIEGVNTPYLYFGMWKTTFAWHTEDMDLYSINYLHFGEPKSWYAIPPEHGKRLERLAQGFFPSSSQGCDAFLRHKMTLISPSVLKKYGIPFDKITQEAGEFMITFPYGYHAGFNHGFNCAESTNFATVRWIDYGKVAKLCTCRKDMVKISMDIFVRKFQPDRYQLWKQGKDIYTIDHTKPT
Procedure, shortened: (§1)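 Each enzyme was preincubated 10 min, then 10 min with compound (added in 3% DMSO solution in enzyme buffer) before substrate addition and reaction at room temperature. Demethylation was detected by AlphaLISA: acceptor beads 60 min in the dark, then streptavidin donor beads, incubated and read; IC50 values determined.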

FBXL10 (KDM2B) = biological target: T2, FBXL10 (KDM2B) (Homo sapiens, UniProt Q8NHM5); assay: Histone lysine demethylase AlphaLISA assay, FBXL10; assay type: biochemical; settings: substrate BH3K36M2
T2 construct: 1-650; purchased BPS, Bioscience, US; host or cells: Bac (baculovirus)
T2 sequence (Q8NHM5 1-650): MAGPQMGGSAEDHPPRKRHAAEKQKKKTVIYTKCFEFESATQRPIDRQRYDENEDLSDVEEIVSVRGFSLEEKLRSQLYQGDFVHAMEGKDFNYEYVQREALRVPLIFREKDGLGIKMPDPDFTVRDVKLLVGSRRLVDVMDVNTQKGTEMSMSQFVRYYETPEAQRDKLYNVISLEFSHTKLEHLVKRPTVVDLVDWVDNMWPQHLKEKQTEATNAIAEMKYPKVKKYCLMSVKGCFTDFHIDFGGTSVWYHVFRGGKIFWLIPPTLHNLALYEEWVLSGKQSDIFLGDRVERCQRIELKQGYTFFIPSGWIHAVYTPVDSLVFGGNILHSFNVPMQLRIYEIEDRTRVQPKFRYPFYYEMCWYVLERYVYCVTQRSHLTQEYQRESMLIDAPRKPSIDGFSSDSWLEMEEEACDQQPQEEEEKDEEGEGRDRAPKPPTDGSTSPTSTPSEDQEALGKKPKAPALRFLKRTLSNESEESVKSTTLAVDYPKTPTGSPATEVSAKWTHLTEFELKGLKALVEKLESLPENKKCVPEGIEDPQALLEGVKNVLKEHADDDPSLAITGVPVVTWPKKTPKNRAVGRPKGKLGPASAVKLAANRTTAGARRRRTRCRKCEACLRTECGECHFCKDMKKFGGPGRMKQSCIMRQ
Experimental: Example 2: Histone Lysine Demethylase AlphaLISA Assays for IC50 Value Determination
Assays are performed analogously to the protocol described by Perkin Elmer (Roy et al. Perkin Elmer Technical Note: AlphaLISA #12, April 2011).
Enzymes are dissolved in enzyme buffer and incubated for 10 min before 5 μL is added to 5 μL 3% DMSO solutions of compounds in enzyme buffer. Incubated for another 10 minutes, before 5 μL substrate solution is added and the reaction mixture is incubated at room temperature for the given period. 10 μL acceptor beads, suspended at given dilutions in Epigenetic Buffer (Perkin Elmer AL008) from stock, are added and the suspension is incubated 60 minutes in the dark at room temperature, before 10 μL suspension (at the given dilutions in Epigenetic Buffer) of streptavidin donor beads (Perkin Elmer 6760002) in Epigenetic Buffer is added. After incubation at room temperature in the dark the plates are read. Reaction conditions are seen in Table 2b.

PLU1 (KDM5B) [1] = biological target: T3, PLU1 (KDM5B) (Homo sapiens, UniProt Q9UGL1); assay: Histone lysine demethylase AlphaLISA assay, PLU1; assay type: biochemical; settings: substrate H3K4M3B
T3 construct: 1-809; host or cells: E. coli
T3 sequence (Q9UGL1 1-809): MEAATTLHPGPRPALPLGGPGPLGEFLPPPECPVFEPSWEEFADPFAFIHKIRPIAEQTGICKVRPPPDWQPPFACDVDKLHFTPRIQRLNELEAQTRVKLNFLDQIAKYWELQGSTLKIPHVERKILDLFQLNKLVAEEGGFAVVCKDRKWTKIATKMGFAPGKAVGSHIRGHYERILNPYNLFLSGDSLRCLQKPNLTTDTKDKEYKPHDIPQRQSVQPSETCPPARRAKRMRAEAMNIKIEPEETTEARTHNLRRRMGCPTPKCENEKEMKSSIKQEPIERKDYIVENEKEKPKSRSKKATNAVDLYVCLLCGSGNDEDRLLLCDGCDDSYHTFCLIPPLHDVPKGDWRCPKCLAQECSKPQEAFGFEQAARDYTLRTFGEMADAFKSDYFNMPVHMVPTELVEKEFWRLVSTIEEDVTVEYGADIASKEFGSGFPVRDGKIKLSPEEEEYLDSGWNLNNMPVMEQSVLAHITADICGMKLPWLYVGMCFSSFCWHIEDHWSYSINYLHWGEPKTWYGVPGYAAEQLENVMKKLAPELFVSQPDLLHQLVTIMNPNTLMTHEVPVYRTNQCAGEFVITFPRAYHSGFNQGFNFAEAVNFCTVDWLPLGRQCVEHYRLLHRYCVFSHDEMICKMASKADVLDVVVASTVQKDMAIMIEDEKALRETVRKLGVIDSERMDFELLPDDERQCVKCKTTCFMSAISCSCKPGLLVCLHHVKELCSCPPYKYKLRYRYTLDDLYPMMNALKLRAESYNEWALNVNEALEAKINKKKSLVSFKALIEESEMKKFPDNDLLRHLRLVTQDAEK
Procedure, shortened: as §1

GASC1 (KDM4C) = biological target: T4, GASC1 (KDM4C) (Homo sapiens, UniProt Q9H3R0); assay: Immunofluorescence assay in U2OS cells transfected with pCMVHA JMJD2C (H3K9me3 mark); assay type: cell-based; settings: 20 hours
T4 construct: Full length; host or cells: U2OS
T4 sequence (Q9H3R0 1-1056): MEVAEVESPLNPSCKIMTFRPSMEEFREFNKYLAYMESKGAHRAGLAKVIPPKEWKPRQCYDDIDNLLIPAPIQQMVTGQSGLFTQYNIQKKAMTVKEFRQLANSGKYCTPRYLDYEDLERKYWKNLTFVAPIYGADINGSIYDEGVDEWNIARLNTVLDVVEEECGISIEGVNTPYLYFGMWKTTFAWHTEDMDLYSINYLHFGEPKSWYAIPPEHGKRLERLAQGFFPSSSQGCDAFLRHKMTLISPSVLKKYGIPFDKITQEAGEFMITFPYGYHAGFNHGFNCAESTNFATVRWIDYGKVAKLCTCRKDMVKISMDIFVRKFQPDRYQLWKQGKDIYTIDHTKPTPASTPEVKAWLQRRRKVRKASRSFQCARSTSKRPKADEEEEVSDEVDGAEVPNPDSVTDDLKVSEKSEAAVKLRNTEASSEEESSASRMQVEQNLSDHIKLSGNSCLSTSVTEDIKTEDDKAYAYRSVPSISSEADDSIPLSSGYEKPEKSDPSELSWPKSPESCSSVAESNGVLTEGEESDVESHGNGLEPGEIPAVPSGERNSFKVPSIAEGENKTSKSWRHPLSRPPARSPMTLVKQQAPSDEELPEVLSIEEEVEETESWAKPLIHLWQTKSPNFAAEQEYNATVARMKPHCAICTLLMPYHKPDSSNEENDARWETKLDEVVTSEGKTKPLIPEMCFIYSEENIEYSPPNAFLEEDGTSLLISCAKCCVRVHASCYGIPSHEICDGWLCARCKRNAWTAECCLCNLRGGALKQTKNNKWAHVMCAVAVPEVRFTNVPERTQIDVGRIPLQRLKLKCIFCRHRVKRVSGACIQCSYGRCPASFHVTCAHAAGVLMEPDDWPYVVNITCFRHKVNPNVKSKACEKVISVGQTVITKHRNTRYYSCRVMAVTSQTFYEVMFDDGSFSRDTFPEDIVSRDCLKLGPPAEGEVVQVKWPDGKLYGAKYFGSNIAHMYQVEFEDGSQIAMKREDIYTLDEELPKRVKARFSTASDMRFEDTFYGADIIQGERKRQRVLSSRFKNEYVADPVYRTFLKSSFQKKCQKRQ
Experimental: (§2) U2OS cells were seeded 24 hours before transfection. Transfection was performed with Fugene HD transfection reagent as recommended by the manufacturer. 6 hours after transfection, the cells were harvested and seeded into multi well plates into media containing compound. The media used was DMEM containing 5% FBS and pen/strep. 20 hours after incubation of cells with compounds, the cells were washed once in PBS, harvested by fixation with formaldehyde 4% aqueous solution, and washed 2 times in PBS. Subsequently, the cells were permeabilized in PBS with 0.2% Triton X-100 for 10 min at room temperature. Blocking was performed in PBS with 0.2% Triton X-100 and 5% FBS for 45 min at room temperature. The cells were incubated with primary antibodies diluted 1 μg/ml in blocking solution over night at 4° C. The primary antibodies used in the assays were HA.11 (Covance, MMS-101P) and the antibody detecting the mark specified in the Table 6 below. After incubation with primary antibodies, the cells were washed 3 times with PBS, incubated with secondary antibodies diluted 1:1000 (Alexa fluor 594 goat anti rabbit IgG, Invitrogen, A11012; Alexa flour 488 donkey anti mouse IgG, Invitrogen, A21202) and Hoechst, 20 μg/ml (Sigma, 33342) in blocking solution, and washed again 3 times with PBS. Finally, PBS was added and high throughput imaging and analysis were performed by an IN Cell Analyzer 1000 (GE Healthcare). The robot software analyzed individual cells and divided these into HA^+ (transfected cells) and HA^− (non-transfected cells). The IC50 values in Table 7 below were based on an average measure of the staining of the mark specified in the Table 6 below in the transfected cells.

PLU1 (KDM5B) [2] = biological target: T5, PLU1 (KDM5B) (Homo sapiens, UniProt Q9UGL1); assay: Immunofluorescence assay in U2OS cells transfected with pCMVHA PLU1 (H3K4me2 mark); assay type: cell-based; settings: 20 hours
T5 construct: (1-752); host or cells: U2OS
T5 sequence (Q9UGL1 1-752): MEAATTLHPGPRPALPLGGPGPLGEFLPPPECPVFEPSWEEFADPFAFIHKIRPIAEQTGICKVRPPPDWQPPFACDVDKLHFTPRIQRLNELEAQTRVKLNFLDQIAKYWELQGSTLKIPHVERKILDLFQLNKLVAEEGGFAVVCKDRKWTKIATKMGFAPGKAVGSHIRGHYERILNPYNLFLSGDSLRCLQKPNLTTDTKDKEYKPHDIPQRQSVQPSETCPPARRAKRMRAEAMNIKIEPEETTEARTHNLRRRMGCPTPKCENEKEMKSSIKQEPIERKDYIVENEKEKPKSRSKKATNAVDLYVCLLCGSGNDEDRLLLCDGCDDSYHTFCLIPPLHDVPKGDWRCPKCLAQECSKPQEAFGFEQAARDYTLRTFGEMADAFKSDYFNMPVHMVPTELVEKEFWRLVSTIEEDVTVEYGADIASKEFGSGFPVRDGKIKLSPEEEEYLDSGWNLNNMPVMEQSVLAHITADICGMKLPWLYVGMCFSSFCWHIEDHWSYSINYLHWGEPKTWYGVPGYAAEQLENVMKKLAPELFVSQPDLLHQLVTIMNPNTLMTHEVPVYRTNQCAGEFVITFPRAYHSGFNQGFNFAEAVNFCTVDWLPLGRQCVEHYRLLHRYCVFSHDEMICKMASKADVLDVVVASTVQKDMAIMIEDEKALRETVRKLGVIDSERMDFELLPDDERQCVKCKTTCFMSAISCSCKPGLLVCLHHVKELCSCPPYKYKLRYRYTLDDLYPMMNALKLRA
Experimental: as §2

Structure (SMILES) | IC50 (GASC1 (KDM4C, JMJD2C)) [µM] | IC50 (FBXL10 (KDM2B)) [µM] | IC50 (PLU1 (KDM5B) [1]) [µM] | IC50 (GASC1 (KDM4C)) [µM] | IC50 (PLU1 (KDM5B) [2]) [µM]
CCN(CCN(C)C)C(=O)CNCc1cc(C(=O)N2CCOC2=O)ccn1 [#72, N-[2-(dimethylamino)ethyl]-N-ethyl-2-({[4-(2-oxo-1,3-oxazolidine-3-carbonyl)pyridin-2-yl]methyl}amino)acetamide] | < 0.1 | ≥ 1 | < 0.1 | – | –
O=C(O)c1ccnc(CN2CCC2)c1 [#79, 2-(azetidin-1-ylmethyl)pyridine-4-carboxylic acid] | ≥ 1 | ≥ 1 | ≥ 1 | – | –
CCN(CCN(C)C)C(=O)CNCc1cc(C(=O)OCC(F)(F)F)ccn1 [#80, 2,2,2-trifluoroethyl 2-{[({[2-(dimethylamino)ethyl](ethyl)carbamoyl}methyl)amino]methyl}pyridine-4-carboxylate] | < 0.1 | ≥ 1 | < 0.1 | – | –
CCN(CC(=O)N1CCCCC1)Cc1cc(C(=O)O)ccn1 [#81, 2-({ethyl[2-oxo-2-(piperidin-1-yl)ethyl]amino}methyl)pyridine-4-carboxylic acid] | 0.1 to 1 | 0.1 to 1 | 0.1 to 1 | – | –
CCCCN(CC(=O)N1CCCCC1)Cc1cc(C(=O)O)ccn1 [#82, 2-({butyl[2-oxo-2-(piperidin-1-yl)ethyl]amino}methyl)pyridine-4-carboxylic acid] | ≥ 1 | 0.1 to 1 | ≥ 1 | – | –
CCN(CC)CCCCNCc1cc(C(=O)Oc2ccc(OC)cc2)ccn1 [drawing 329, 4-methoxyphenyl 2-({[4-(diethylamino)butyl]amino}methyl)pyridine-4-carboxylate] | – | – | – | 1 to 50 | < 1
CCOC(=O)c1ccccc1OC(=O)c1ccnc(CNCCCCN(CC)CC)c1 [drawing 330, 2-(ethoxycarbonyl) phenyl 2-({[4-(diethylamino)butyl]amino}methyl)pyridine-4-carboxylate] | – | – | – | 1 to 50 | < 1
CCN(CC)CCCCNCc1cc(C(=O)OCCN(C)C)ccn1 [drawing 331, 2-(dimethylamino) ethyl 2-({[4-(diethylamino)butyl]amino}methyl)pyridine-4-carboxylate] | – | – | – | 1 to 50 | 1 to 50
CCN(CC)CCCCNCc1cc(C(=O)OCCCN(C)C)ccn1 [drawing 332, 3-(dimethylamino) propyl 2-({[4-(diethylamino)butyl]amino}methyl)pyridine-4-carboxylate] | – | – | – | 1 to 50 | 1 to 50
